Experimental data taken from patent EP0476645B1, “Calcium uptake inhibitors” (MERRELL DOW PHARMACEUTICALS INC., priority 1990, dated 1992).
Like-named read-outs stand apart in the source and are kept apart here.

Key:
Rat PMNL [1] = experiment: Measurement of intracellular calcium in fMLP-stimulated PMNL preloaded with Fura-2; assay type: cell-based; settings: fMLP stimulus, preincubation with compound 15 minutes at 37°C, concentrations in figure 1
Description: (§1) Rat PMNL were obtained from exudates resulting from peritoneal injection of 6 mL of 8% sodium caseinate. Eighteen hours after injection rats were killed by carbon dioxide inhalation and the peritoneal cavity lavaged with Hank's balanced salt solution (HBSS). After concentration of the PMNL by centrifugation, contaminating erythrocytes were removed by hypotonic lysis. The PMNL were then washed twice by centrifugation (400 x g for 10 minutes) and resuspended in HBSS. Cell viability was greater than 90% by Trypan Blue exclusion and greater than 90% of the cells were PMNL by Wright-Giemsa stain.
Intracellular calcium levels were obtained using Fura-2 as fluorescent indicator (Grynkiewicz et al., 1985). Fura-2 was loaded into PMNL as the acetoxymethyl ester (Fura-2/AM) using the method of Korchak et al., (1988). Specifically, 1 X 10⁸ PMNL/mL were incubated in HBSS with 10 µM Fura-2/AM for 10 minutes at 37°C. The cells suspension was then diluted ten fold with HBSS and further incubated for another 20 minutes. The cells were then centrifuged (400 x g for 8 minutes at 25°C) and the PMNL (1 x 10⁷ cells/mL) resuspended in HBSS containing 1% bovine serum albumin. Cells were stored at room temperature and used within 3 hours.
Intracellular calcium level determinations were made using a dual wavelength spectrofluorometer (Photon Technology International, New Brunswick, NJ). Two mL of PMNL suspension (1 x 10⁷ cells/mL) were stirred magnetically at 37°C. Cells were preincubated with the compounds for 15 minutes at 37°C prior to activation. Where compounds were dissolved in DMSO and added directly, the DMSO never exceeded 0.3% in the final cell suspension. Total change in volume with addition of compounds or vehicle and stimuli never exceeded 3%. Intracellular calcium concentrations were calibrated by setting a maximum calcium level in the cells with the addition of 7 µM ionomycin to PMNL in HBSS containing 1% BSA. This was followed by treatment with 20 mM EGTA for 1 hour to obtain a minimum calcium level. […]

Rat PMNL [2] = experiment: Superoxide anion (SOA) production by stimulated PMNL; assay type: cell-based; settings: for inhibition of superoxide anion production: PMA and OZ stimulus, result in words; for inhibition at 1 µM / inhibition at 3 µM / inhibition at 10 µM / inhibition at 30 µM / inhibition at 100 µM: Rattus norvegicus, PMNL, inhibition of superoxide anion production; for inhibition at 1 µM: 1 µM compound; for inhibition at 3 µM: 3 µM compound; for inhibition at 10 µM: 10 µM compound; for inhibition at 30 µM: 30 µM compound; for inhibition at 100 µM: 100 µM compound
Description: as §1
Aliquots (50 µl) of a rat PMNL suspension (2 x 10⁷ cells/mL in HBSS) were incubated with 50 µl of HBSS containing vehicle (0.3% DMSO) or compound for 30 minutes at 37°C as above. One hundred microliters of buffer containing 5.98 mg/mL of cytochrome C (Sigma Type III) and 0.1 mg/mL catalase, plus the compounds where appropriate, were then added to each sample. A blank for spectrophotometric measurement, containing unstimulated cells in the presence of cytochrome C, catalase and SOD, was also prepared. To activate the PMNL, 75 µl of PMA or OZ were added to achieve the final concentration of cell activator (plus vehicle or inhibitor as described above for MPO release) and the cells further incubated at 37°C for 60 minutes. The activation was terminated by centrifugation at 600 x g for 5 minutes at 4°C. Aliquots (200 µl) of supernatant were then transferred to a second, flat-well microtiter plate and measured spectrophotometrically at 550 nm. […]

[3] = PMA stimulus, read-out: PMA/SOA
[4] = opsonized zymosan stimulus, read-out: OZ/SOA

| Compound | suppression of the second wave of intracellular calcium changes (Rat PMNL [1]) | inhibition of superoxide anion production (Rat PMNL [2]) | inhibition at 1 µM (Rat PMNL [2]; [3]) [%] | inhibition at 3 µM (Rat PMNL [2]; [3]) [%] | inhibition at 10 µM (Rat PMNL [2]; [3]) [%] | inhibition at 30 µM (Rat PMNL [2]; [3]) [%] | inhibition at 100 µM (Rat PMNL [2]; [3]) [%] | inhibition at 1 µM (Rat PMNL [2]; [4]) [%] | inhibition at 3 µM (Rat PMNL [2]; [4]) [%] | inhibition at 10 µM (Rat PMNL [2]; [4]) [%] | inhibition at 30 µM (Rat PMNL [2]; [4]) [%] | inhibition at 100 µM (Rat PMNL [2]; [4]) [%] |
| --- | --- | --- | --- | --- | --- | --- | --- | --- | --- | --- | --- | --- |
| O=C(C#Cc1ccncc1)c1ccccc1 [MDL 101,098, 1-Phenyl-3-(4-pyridinyl)-2-propyne-1-one] | selective concentration-dependent suppression | inhibited in a dose dependent fashion | -30.7 | -4.3 | 29.1 | 70 | 97.2 | -18 | -7.5 | 20.3 | 61.5 | 115 |
| CN(C)c1ccc(C(=O)C#Cc2ccncc2)cc1 [MDL 102,175, 1-(4-Dimethylaminophenyl)-3-(4-pyridinyl)-2-propyne-1-one] | selective concentration-dependent suppression | inhibited in a dose dependent fashion | -20.2 | 13.5 | 49.7 | 77.7 | 100 | -15 | 15.4 | 44.1 | 75.7 | 89.8 |
